Columns and labels:
[1] = tested on: Purified antibodies specific to the RBM (anti-RBM antibodies from vaccinated serum); format: binding, human
[2] = tested on: IgG in serum of vaccinated individuals; assay: In-house peptide ELISA, IgG; format: binding, human; conditions: serum 1:25; for IgG seroreactivity (positive samples): reactivity index > 1.1
Protocol: A panel of 31 serum samples were obtained from individuals who received a single dose of the Oxford/AstraZeneca vaccine, and 15 serum samples were collected from individuals who received four doses. Serum from healthy donors, collected before the pandemic, was provided by HEMORIO, a centralized network of blood donor facilities in Rio de Janeiro, Brazil. Serum samples were supplied without identifying information to ensure patient privacy.
An in-house ELISA was conducted using Immunolon 4 HB plates (Immunochemistry Technologies, Bloomington, MN, USA). The coating process involved overnight incubation at 4 °C, wherein each well received 500 ng of peptides in a coating buffer (50 mM carbonate–bicarbonate buffer, pH 9.6). After washing with PBS-T (phosphate-buffered saline plus 0.05% Tween 20), the plates were incubated for 1 h at 37 °C with 1% BSA (200 µL) in PBS-T to block free binding sites. Following the dilution of patient serum in PBS-T with 1% BSA (1:25), 100 µL of the diluted serum was applied to immunosorbent plates, which were then incubated at 37 °C for 1 h. Following a series of PBS-T washes, plates were treated with 100 µL of mouse anti-human IgG3 (1:1000) followed by association with antimouse peroxidase (1:15.000) or goat anti-human immunoglobulin classes IgG (1:10.000), IgM (1:10.000), and IgA (1:5000) or subclasses IgG1 (1:1000) and IgG2 (1:1000) associated with the HRP molecule, respectively (Sigma-Aldrich, St Louis, MO, USA). Between each step, the plates were incubated at 37 °C for 1 h. Following the addition of 3,3′,5,5′-tetramethylbenzidine (1-Step™ Ultra TMB-ELISA, Science Biotech Ltd., Lages, SC, Brazil) for 15 min, 0.5 M sulfuric acid was utilized to terminate the reaction. The plate was read 30 min after the Stop Solution was added. The values of empty wells that contained only peptides were deducted from the optical density of the sample.
Prism software (GraphPad version 6, San Diego, CA, USA) was utilized to analyze the data. Statistical differences were identified using the Kruskal–Wallis test and Dunn’s multiple comparisons tests. Differences were considered significant when the p-value was less than 0.05. The reactivity index (RI) was calculated by dividing the absorbance of a given protein by the threshold established by a receiver operation curve (ROC) analysis. A result greater than 1.10 was considered positive, while a result less than 0.90 was considered negative; these are represented by dot lines. Samples with a relative index (RI) value of 1.0 ± 10% were classified as gray-zone samples and deemed inconclusive.

[3] = Protein thermal shift assay; format: physicochemical
Protocol: Protein thermal shift assays were performed using a QuantStudio 3 PCR System (Applied Biosystems, Foster City, CA, USA). The experiments used a 0.2 mL MicroAmp® optical eight-strip manufactured by Applied Biosystems. Every step was executed on ice. In each measurement, duplicates or quadruplicates of the samples were analyzed. Each measurement included a negative control free of protein and a positive control obtained with Lysozyme (10 µg) and the peptide S8WT (5 µg). A carbonate–bicarbonate buffer (50 mM, pH 9.6) and a protein thermal shift dye (Applied Biosystems, Foster City, CA, USA) were used in a 4× dye concentration. The plate was sealed with MicroAmp™ Optical Adhesive Film (Applied Biosystems, Foster City, CA, USA) and incubated on ice for 15 min after all components were pipetted into the wells. An Applied Biosystems QuantStudio™ 3 Real-Time PCR System was used, utilizing a gradient rate of 0.05 °C/s and a melt curve filter setting of x2-m2 from 25 °C to 99 °C with continuous data collection. Analyses of the melting curves were conducted with the TSAR application in R version 4.2.1.

antibodies in sera = conditions: ref A novel precision-serology assay for SARS-CoV-2 infection based on linear B-cell epitopes of Spike protein; cited from earlier work
[4] = first dose Oxford/AstraZeneca, n = 30, 500 ng peptide per well
[5] = heterologous booster doses, n = 7

Substance: GSTPCNGVEGFNCYF [S2WT]
- binding affinity of RBM antibodies (in words) [1]: stronger
- Kd ([1]; read-out: Kd (dissociation constant)): 0.035 µM
- IgG positive samples (reactivity index > 1.1) [2, 4]: 4/30
- IgG seroreactivity (positive samples) ([2]; first dose Oxford/AstraZeneca, n = 30): 13.3%
- IgG positive samples (reactivity index > 1.1) [2, 5]: 1/7
- IgG seroreactivity (positive samples) [2, 5]: 14.3%

Substance: Lysozyme
- Tm ([3]; Lysozyme 10 µg control, carbonate–bicarbonate buffer 50 mM, pH 9.6, 25 to 99 °C, 0.05 °C/s, protein thermal shift dye): 72.7 °C
- Tm ([3]; replicate 1 (Lysozyme_1), 10 µg, carbonate–bicarbonate buffer pH 9.6): 71.7 °C
- Tm ([3]; replicate 2 (Lysozyme_2), 10 µg, carbonate–bicarbonate buffer pH 9.6): 73.7 °C

Substance: YFPLQSYGFQPTNGV [S3WT]
- IgG positive samples (reactivity index > 1.1) [2, 4]: only two positive samples
- IgG positive samples (reactivity index > 1.1) [2, 5]: one for heterologous booster doses

Substance: NGVEGFNCYFP
- serological reactivity vs other S1 and S2 regions (antibodies in sera): less serologically reactive than other S1 and S2 regions

From publication PMC11055068, “Humoral Immune Response to SARS-CoV-2 Spike Protein Receptor-Binding Motif Linear Epitopes” (Vaccines, 2024)
